According to patent publication US20240000806A1, “METHODS AND MATERIALS FOR INHIBITING CB1 ACTIVITY” (University of Pittsburgh - Of the Commonwealth System of …, priority 2020, published 2024):

Target: CB1 (CNR1) (Homo sapiens, UniProt P21554)
Assay: cAMP CNR1 Hunter cell line antagonist assay (CB1 assay)
Assay type: cell-based
Conditions: antagonist mode, cAMP CNR1 Hunter cells, EC80 agonist; read-out: CB1 assay, Efficacy (IC50)
Method: cAMP CNR1 Hunter cell line (Eurofins DiscoveryX) were expanded from freezer stocks and seeded in a total volume of 20 μL into white walled, 384-well microplates and incubated at 37° C. for the appropriate time prior to testing. For antagonist determination, cell media was aspirated from cells and replaced with 10 μL 1:1 HBSS/Hepes:cAMP XS+Ab reagent. 5 μL of 4× compound was added to the cells and incubated at 37° C. for 30 minutes. 5 μL of 4× EC80 agonist was added to cells and incubated at 37° C. for 30 minutes. After appropriate compound incubation, assay signal was generated through incubation with 20 μL cAMP XS+ED/CL lysis cocktail for one hour followed by incubation with 20 μL cAMP XS+EA reagent for three hours at room temperature. Microplates were read following signal generation with a PerkinElmer Envision™ instrument for chemiluminescent signal detection. Compound activity (IC50) was analyzed using CBIS data analysis suite (ChemInnovation, CA).

Chain of CB1 (CNR1) (P21554 whole entry): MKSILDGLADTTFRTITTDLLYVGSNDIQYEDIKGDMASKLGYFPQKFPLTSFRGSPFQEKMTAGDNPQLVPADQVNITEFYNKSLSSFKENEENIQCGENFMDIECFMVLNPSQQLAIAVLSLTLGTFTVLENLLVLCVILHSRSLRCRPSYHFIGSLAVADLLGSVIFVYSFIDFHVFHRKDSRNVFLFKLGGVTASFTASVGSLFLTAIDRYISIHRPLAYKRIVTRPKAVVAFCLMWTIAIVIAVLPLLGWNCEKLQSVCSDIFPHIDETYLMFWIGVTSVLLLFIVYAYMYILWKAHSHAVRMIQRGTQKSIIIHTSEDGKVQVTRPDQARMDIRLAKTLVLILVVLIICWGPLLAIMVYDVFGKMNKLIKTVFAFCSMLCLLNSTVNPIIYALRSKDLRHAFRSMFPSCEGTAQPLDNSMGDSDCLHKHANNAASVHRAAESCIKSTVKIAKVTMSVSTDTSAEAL

Row | Compound | IC50
1 | CCc1cccc(NS(=O)(=O)c2cc3c(cc2Br)NC(=O)C(CC(C)C)O3)c1 (stereo not shown) [BC19772] | 1 to 25 µM
2 | CCC1Oc2cc(S(=O)(=O)Nc3cccc(Cl)c3)c(Cl)cc2NC1=O (stereo not shown) [BC19751] | < 1 µM
3 | CC1Oc2cc(S(=O)(=O)Nc3ccc(C#N)cc3)c(Br)cc2N(C)C1=O (stereo not shown) [BC19920] | 1 to 25 µM
4 | CCc1cccc(NS(=O)(=O)c2cc(Cl)cc3c2OC(CC)C(=O)N3)c1 (stereo not shown) [BC19750] | ≥ 25 µM
5 | CC1Oc2cc(S(=O)(=O)Nc3ccc(F)cc3)c(Cl)cc2NC1=O (stereo not shown) [BC19721] | < 1 µM
6 | Cc1ccc(NS(=O)(=O)c2cc3c(cc2Br)NC(=O)C(CC(C)C)O3)cc1Cl (stereo not shown) [BC19768] | 1 to 25 µM
7 | CCCNS(=O)(=O)c1cc2c(cc1Br)NC(=O)C(CC)O2 (stereo not shown) [BC19222] | 1 to 25 µM
8 | CC1Oc2c(cc(Cl)cc2S(=O)(=O)Nc2ccccc2)NC1=O (stereo not shown) [BC19291] | ≥ 25 µM
9 | CC1Oc2c(cc(Br)cc2S(=O)(=O)Nc2ccc(F)cc2Cl)N(C)C1=O (stereo not shown) [BC19908] | ≥ 25 µM
10 | CCOc1ccc(NS(=O)(=O)c2cc(Cl)cc3c2OC(C)C(=O)N3)cc1 (stereo not shown) [BC19355] | 1 to 25 µM
11 | O=C1NCCOc2c1cc(Br)cc2S(=O)(=O)Nc1ccc(F)c(F)c1 [BC19551] | ≥ 25 µM
12 | CC1Oc2cc(S(=O)(=O)N3CCOCC3)c(Br)cc2NC1=O (stereo not shown) [BC19217] | ≥ 25 µM
13 | CCC1Oc2c(cc(Cl)cc2S(=O)(=O)Nc2ccc(F)cc2F)NC1=O (stereo not shown) [BC19748] | ≥ 25 µM
14 | CC(C)NS(=O)(=O)c1cc(Cl)cc2c1OC(C)C(=O)N2 (stereo not shown) [BC19293] | ≥ 25 µM
15 | CCC1Oc2c(cc(Cl)cc2S(=O)(=O)Nc2ccc(OC(F)(F)F)cc2)NC1=O (stereo not shown) [BC19734] | 1 to 25 µM
16 | Cc1ccc(NS(=O)(=O)c2cc3c(cc2C)NC(=O)CO3)cc1 [BC19134] | < 1 µM
17 | O=C1NCCOc2c1cc(Br)cc2S(=O)(=O)Nc1ccc(OC(F)(F)F)cc1 [BC19550] | ≥ 25 µM
18 | CCC1Oc2cc(S(=O)(=O)NCCc3ccc(OC(F)(F)F)cc3)c(Br)cc2NC1=O (stereo not shown) [BC19373] | ≥ 25 µM
19 | Cc1ccc(NS(=O)(=O)c2cc(Br)cc3c2OCCNC3=O)cc1 [BC19612] | ≥ 25 µM
20 | CC(C)CC1Oc2c(cc(Br)cc2S(=O)(=O)Nc2ccc(F)cc2F)NC1=O (stereo not shown) [BC19769] | 1 to 25 µM
21 | CCC1Oc2cc(S(=O)(=O)Nc3ccc(OC)c(Cl)c3)c(Cl)cc2NC1=O (stereo not shown) [BC19743] | ≥ 25 µM
22 | CC1Oc2c(cc(Br)cc2S(=O)(=O)NC2CCC(C(C)(C)C)CC2)NC1=O (stereo not shown) [BC19367] | ≥ 25 µM

Row | Compound | IC50
23 | CCc1ccc(NS(=O)(=O)c2cc(Br)cc3c2OC(CC(C)C)C(=O)N3)cc1 (stereo not shown) [BC19763] | 1 to 25 µM
24 | CCS(=O)(=O)c1cc2c(c(S(=O)(=O)Nc3ccc(C)c(Cl)c3)c1)OCC(=O)N2 [BC19544] | ≥ 25 µM
25 | CC(C)c1ccc(NS(=O)(=O)c2cc(Br)cc3c2OCCC(=O)N3)cc1 [BC19687] | ≥ 25 µM
26 | CC1Oc2c(cc(Br)cc2S(=O)(=O)Nc2ccc(Cl)cc2)N(C)C1=O (stereo not shown) [BC19791] | ≥ 25 µM
27 | CN1CC(=O)Nc2ccc(S(=O)(=O)N3CCCC3)cc21 [BC19181] | ≥ 25 µM
28 | Cc1ccc(NS(=O)(=O)c2cc3c(cc2Br)N(C)C(=O)C(C)O3)cc1F (stereo not shown) [BC19786] | ≥ 25 µM
29 | CCS(=O)(=O)c1cc2c(c(S(=O)(=O)Nc3ccc(Cl)cc3)c1)OCC(=O)N2 [BC19491] | ≥ 25 µM
30 | CC(C)CNS(=O)(=O)c1cc2c(cc1Br)NC(=O)C(C)O2 (stereo not shown) [BC19218] | 1 to 25 µM
31 | Cc1ccc(NS(=O)(=O)c2cc(Cl)cc3c2OCC(=O)N3)cc1Cl [BC19176] | < 1 µM
32 | CC(C)CC1Oc2c(cc(Br)cc2S(=O)(=O)Nc2ccc(C(C)C)cc2)NC1=O (stereo not shown) [BC19765] | ≥ 25 µM
33 | CC1Oc2cc(S(=O)(=O)Nc3ccc(F)c(F)c3)c(Br)cc2NC1=O (stereo not shown) [BC19284] | ≥ 25 µM
34 | CCc1ccc(NS(=O)(=O)c2cc3c(cc2Br)NC(=O)CO3)cc1 [BC19138] | < 1 µM
35 | CCc1ccc(NS(=O)(=O)c2cc(Cl)cc3c2OC(C)C(=O)N3)cc1 (stereo not shown) [BC19703] | 1 to 25 µM
36 | O=C1NCCOc2c1cc(Br)cc2S(=O)(=O)Nc1cccc(F)c1 [BC19610] | 1 to 25 µM
37 | N#Cc1ccc(NS(=O)(=O)c2cc(Br)cc3c2OCCNC3=O)cc1 [BC19615] | ≥ 25 µM
38 | CS(=O)(=O)c1cc2c(c(S(=O)(=O)Nc3ccc(F)cc3)c1)OCC(=O)N2 [BC19430] | ≥ 25 µM
39 | CCC1Oc2c(cc(Br)cc2S(=O)(=O)Nc2ccc(C)cc2)NC1=O (stereo not shown) [BC19234] | ≥ 25 µM
40 | CC1Oc2c(cc(Cl)cc2S(=O)(=O)Nc2ccc(Cl)cc2)NC1=O (stereo not shown) [BC19697] | ≥ 25 µM
41 | CC1Oc2c(cc(Cl)cc2S(=O)(=O)Nc2ccc(F)cc2F)NC1=O (stereo not shown) [BC19710] | ≥ 25 µM
42 | O=C1COc2c(cc(Br)cc2S(=O)(=O)NCc2ccc(C(F)(F)F)cc2)N1 [BC19382] | 1 to 25 µM
43 | CCc1ccc(NS(=O)(=O)c2cc3c(cc2Br)N(C)C(=O)C(CC)O3)cc1 (stereo not shown) [BC19932] | ≥ 25 µM
